These results are taken from paper PMC3000536 (Tetrahedron letters, 2011).

SMILES strings stand for the structures.

A word on the IC50: it is the midpoint of a concentration-inhibition curve.

Assay type in all cases: biochemical
One assay has as its target Almond β-Glucosidase. In words: Glycosidase inhibition, almond β-glucosidase. The conditions noted are these: read-out: IC50 β-Glucosidase Almond.
The target in assay [1] is Coffee beans α-Galactosidase (Coffea arabica, UniProt Q42656). The experiment in a line: Glycosidase inhibition, coffee beans α-galactosidase.
Another assay addresses Snail β-Mannosidase. The experiment in a line: Glycosidase inhibition, snail β-mannosidase. To be noted: read-out: IC50 β-Mannosidase Snail.
For assay [2], the target named is Bovine liver β-Galactosidase. In words: Glycosidase inhibition, bovine liver β-galactosidase. To be noted: read-out: IC50 β-Galactosidase Bovine liver.
For assay [3], the target named is T1, Bovine epididymis α-L-Fucosidase (Bos taurus, UniProt Q2KIM0).
T1 sequence (Q2KIM0 23-468): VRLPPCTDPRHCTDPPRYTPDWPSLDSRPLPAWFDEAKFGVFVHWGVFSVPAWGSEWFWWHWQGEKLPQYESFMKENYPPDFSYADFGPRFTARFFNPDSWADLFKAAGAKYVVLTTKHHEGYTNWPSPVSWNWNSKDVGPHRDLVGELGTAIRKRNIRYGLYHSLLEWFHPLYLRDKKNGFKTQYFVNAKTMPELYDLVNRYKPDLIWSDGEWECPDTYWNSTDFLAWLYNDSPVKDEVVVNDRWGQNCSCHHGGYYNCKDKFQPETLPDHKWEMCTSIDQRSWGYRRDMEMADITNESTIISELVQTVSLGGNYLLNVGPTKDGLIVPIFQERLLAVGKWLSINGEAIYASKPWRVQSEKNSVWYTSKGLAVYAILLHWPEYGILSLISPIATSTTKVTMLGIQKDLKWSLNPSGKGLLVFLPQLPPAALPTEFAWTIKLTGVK
In words: Glycosidase inhibition, bovine epididymis α-L-fucosidase.

Assay [4] deals with T2, Rat intestinal cellobiase (Rattus norvegicus, UniProt Q02401).
T2 sequence (Q02401 868-1928): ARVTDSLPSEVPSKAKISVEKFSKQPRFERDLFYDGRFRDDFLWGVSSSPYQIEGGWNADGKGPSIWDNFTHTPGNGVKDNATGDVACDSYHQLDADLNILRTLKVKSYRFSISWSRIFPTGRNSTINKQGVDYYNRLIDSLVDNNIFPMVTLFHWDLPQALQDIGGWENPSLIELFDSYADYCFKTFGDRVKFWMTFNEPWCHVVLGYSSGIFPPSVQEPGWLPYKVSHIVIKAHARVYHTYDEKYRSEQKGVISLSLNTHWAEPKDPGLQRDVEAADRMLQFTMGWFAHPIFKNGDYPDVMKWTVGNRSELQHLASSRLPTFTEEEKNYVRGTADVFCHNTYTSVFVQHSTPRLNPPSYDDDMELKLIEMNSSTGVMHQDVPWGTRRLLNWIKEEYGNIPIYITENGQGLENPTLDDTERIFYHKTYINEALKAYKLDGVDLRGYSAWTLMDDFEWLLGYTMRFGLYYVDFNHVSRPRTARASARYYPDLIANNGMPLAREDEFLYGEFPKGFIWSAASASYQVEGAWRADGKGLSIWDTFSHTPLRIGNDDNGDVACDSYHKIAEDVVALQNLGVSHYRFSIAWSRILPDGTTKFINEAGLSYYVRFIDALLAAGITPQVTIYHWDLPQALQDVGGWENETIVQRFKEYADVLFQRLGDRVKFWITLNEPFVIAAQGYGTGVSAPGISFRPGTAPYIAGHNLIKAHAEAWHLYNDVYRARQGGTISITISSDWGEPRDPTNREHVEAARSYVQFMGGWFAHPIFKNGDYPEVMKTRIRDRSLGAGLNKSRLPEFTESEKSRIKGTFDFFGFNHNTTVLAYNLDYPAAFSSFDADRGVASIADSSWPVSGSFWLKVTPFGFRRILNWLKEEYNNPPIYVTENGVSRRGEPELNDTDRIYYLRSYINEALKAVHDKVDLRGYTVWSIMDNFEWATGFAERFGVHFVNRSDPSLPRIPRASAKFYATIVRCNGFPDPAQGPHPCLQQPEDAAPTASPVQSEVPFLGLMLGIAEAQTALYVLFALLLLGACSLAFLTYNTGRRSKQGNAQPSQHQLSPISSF
The experiment in a line: Glycosidase inhibition, rat intestinal cellobiase.

In another assay the target is T3, Jack beans α-Mannosidase (Canavalia ensiformis, UniProt C0HJB3).
T3 sequence (C0HJB3 1-981): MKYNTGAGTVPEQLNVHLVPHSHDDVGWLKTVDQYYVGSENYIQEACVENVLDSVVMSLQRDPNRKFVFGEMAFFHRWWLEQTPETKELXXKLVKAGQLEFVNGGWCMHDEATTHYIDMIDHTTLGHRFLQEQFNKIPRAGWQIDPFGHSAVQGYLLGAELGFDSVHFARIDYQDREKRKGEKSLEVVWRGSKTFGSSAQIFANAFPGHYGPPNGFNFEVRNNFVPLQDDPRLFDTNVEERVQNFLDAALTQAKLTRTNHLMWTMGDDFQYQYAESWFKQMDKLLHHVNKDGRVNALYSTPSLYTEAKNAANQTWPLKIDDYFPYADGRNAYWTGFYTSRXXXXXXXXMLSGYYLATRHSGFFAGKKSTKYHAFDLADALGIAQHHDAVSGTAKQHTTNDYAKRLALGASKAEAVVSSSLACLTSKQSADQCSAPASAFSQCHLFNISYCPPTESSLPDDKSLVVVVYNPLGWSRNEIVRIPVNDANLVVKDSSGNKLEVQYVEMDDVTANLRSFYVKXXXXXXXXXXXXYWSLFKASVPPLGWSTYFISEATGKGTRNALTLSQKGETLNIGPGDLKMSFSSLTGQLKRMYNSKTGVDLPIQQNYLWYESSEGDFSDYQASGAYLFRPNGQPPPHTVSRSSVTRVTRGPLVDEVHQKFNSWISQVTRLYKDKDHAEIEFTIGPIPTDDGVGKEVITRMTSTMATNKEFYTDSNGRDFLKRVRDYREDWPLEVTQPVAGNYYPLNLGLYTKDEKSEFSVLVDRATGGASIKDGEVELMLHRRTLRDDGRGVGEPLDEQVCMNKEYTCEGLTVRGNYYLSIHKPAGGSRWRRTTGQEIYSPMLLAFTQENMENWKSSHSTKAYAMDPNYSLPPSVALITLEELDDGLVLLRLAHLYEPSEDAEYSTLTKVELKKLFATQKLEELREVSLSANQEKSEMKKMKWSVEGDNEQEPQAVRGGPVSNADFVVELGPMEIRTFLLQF
In words: Glycosidase inhibition, jack beans α-mannosidase.

Sequence of Coffee beans α-Galactosidase (Q42656 16-378): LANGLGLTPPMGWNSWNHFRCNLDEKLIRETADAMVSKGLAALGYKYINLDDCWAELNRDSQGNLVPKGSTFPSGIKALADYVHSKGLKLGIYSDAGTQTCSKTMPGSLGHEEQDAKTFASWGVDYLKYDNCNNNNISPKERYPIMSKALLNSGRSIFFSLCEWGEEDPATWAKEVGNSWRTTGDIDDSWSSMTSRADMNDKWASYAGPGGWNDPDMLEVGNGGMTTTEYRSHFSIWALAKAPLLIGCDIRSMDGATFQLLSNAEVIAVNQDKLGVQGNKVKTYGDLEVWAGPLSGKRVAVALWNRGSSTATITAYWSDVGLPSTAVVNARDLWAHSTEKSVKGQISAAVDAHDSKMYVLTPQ

Take `OC[C@H]1NC[C@@H](O)[C@@H]1O` [DAB 3D]: the half-maximal inhibitory concentration (IC50) at Almond β-Glucosidase was 0.25 mM; in assay [1] it was greater than 1 mM; on Snail β-Mannosidase, greater than 1 mM; in assay [2] it was greater than 1 mM; in assay [3], greater than 1 mM; in assay [4] it was 0.756 mM.
Consider `OC[C@@H]1NC[C@H](O)[C@H]1O` [LAB 3L], for which the IC50 (on Almond β-Glucosidase; in assay [1]; at Jack beans α-Mannosidase; at Snail β-Mannosidase; in assay [2]; in assay [3]) was greater than 1 mM in each case. Further, in assay [4], the IC50 is greater than 1 mM.
